Assay results reported in ChEMBL document CHEMBL5390242, “Design, Synthesis, and Antitumor Efficacy of Substituted 2-Amino[1,2,4]triazolopyrimidines and Related Heterocycles as Dual Inhibitors for Microtubule Polymerization and Janus Kinase 2” (J Med Chem, 2023).
Activity calls are given as the source filed them. The rule behind the calls is not given here.

Legend:
HeLa = assay: Antiproliferative activity against human HeLa cells assessed as cell growth inhibition incubated for 48 hrs by MTT assay; type: functional, cell-based
KP-4 = assay: Antiproliferative activity against human KP-4 cells assessed as cell growth inhibition incubated for 48 hrs by MTT assay; type: functional, cell-based; conditions: KP-4, 48 h
A549 [1] = assay: Antiproliferative activity against human A549 cells assessed as cell growth inhibition incubated for 48 hrs by MTT assay; type: functional, cell-based; conditions: A549, 48 h
[2] = target: Tyrosine-protein kinase JAK2 (Homo sapiens, UniProt O60674); assay: Inhibition of JAK2 (unknown origin) using Poly-(Glu,Tyr 4:1) peptide as substrate at 1 uM in presence of ATP by ADP-Glo reagent based assay relative to control
A549 [3] = assay: Induction of apoptosis in human A549 cells at 5 uM incubated for 24 hrs by Annexin V-FITC/PI staining based flow cytometry; type: functional
[4] = target: Tyrosine-protein kinase JAK3 (Homo sapiens, UniProt P52333)
Description: Inhibition of JAK3 (unknown origin) using Poly-(Glu,Tyr 4:1) peptide as substrate in presence of ATP by ADP-Glo reagent based assay

[5] = Cytotoxicity against human HaCaT cells assessed as cell growth inhibition incubated for 48 hrs by MTT assay; type: toxicity, cell-based
[6] = Antiproliferative activity against human HCT-8/VCR cells assessed as cell growth inhibition incubated for 48 hrs by MTT assay; type: functional, cell-based
PC-3 = assay: Antiproliferative activity against human PC-3 cells assessed as cell growth inhibition incubated for 48 hrs by MTT assay; type: functional, cell-based; conditions: PC-3, 48 h
[7] = Antiproliferative activity against Chinese hamster CHO cells assessed as cell growth inhibition incubated for 48 hrs by MTT assay; type: toxicity, cell-based, Cricetulus griseus
[8] = MRT (0 to t) in CD-1 mouse at 1 mg/kg,iv measured upto 24 hrs by HPLC-MS/MS analysis; type: ADME, organism-based; conditions: in vivo
[9] = Half life in CD-1 mouse at 1 mg/kg,iv measured upto 24 hrs by HPLC-MS/MS analysis; type: ADME, organism-based; conditions: in vivo
[10] = Tmax in CD-1 mouse at 1 mg/kg,iv measured upto 24 hrs by HPLC-MS/MS analysis; type: ADME, organism-based; conditions: in vivo
[11] = MRT (0 to t) in CD-1 mouse at 10 mg/kg,ip measured upto 24 hrs by HPLC-MS/MS analysis; type: ADME, organism-based; conditions: in vivo
[12] = Oral bioavailability in CD-1 mouse at 10 mg/kg,ip measured upto 24 hrs by HPLC-MS/MS analysis; type: ADME, organism-based; conditions: in vivo
[13] = AUC (0 to infinity) in CD-1 mouse assessed as AUC (0 to infinity) of metabolite at 10 mg/kg,ip measured upto 24 hrs by HPLC-MS/MS analysis; type: ADME, organism-based; parameters: time < 24 hrs, dose 10 mg/kg, route ip; conditions: in vivo
[14] = MRT (0 to t) in CD-1 mouse assessed as MRT (0 to t) of metabolite at 10 mg/kg,ip measured upto 24 hrs by HPLC-MS/MS analysis; type: ADME, organism-based; conditions: in vivo
[15] = Cmax in CD-1 mouse assessed as Cmax of metabolite at 10 mg/kg,ip measured upto 24 hrs by HPLC-MS/MS analysis; type: ADME, organism-based; parameters: time < 24 hrs, dose 10 mg/kg, route ip; conditions: in vivo
Tubulin = Tubulin (Sus scrofa, UniProt P02554+P02550); assay: Inhibition of porcine brain tubulin polymerization measured for 30 mins in presence of GTP by microplate reader assay; type: tissue-based
[16] = target: Tubulin beta (Homo sapiens) (UniProt P68371+Q9H4B7+Q13509+P04350+Q3ZCM7+P07437+Q13885+Q9BVA1+Q9BUF5+A6NNZ2); assay: Binding affinity to beta-tubulin colchicine binding site in human A549 cells assessed as inhibition of EBI-beta-tubulin adduct band formation at 1 to 25 uM preincubated for 2 hrs followed by EBI addition measured after 1.5 hrs by EBI competition based Western blotting analysis; type: cell-based; conditions: dose 1-25 µM
Tubulin (Homo sapiens) = Tubulin (Homo sapiens) (UniProt P68371+Q9H4B7+P0DPH7+P68366+Q13509+Q71U36+P04350+Q3ZCM7+P07437+P68363+Q9BQE3+Q6PEY2+Q13885+Q9BVA1+Q9BUF5); assay: Disruption of microtubule assembly in human A549 cells at 0.1 uM incubated for 6 hrs by Hoechst33342 staining based immunofluorescence analysis; type: cell-based
[17] = target: T1, JAK2-STAT3 (Homo sapiens) (UniProt O60674+P40763); assay: Inhibition of JAK2/STAT3 signalling pathway in human A549 cells assessed as downregulation of JAK2 phosphorylation incubated for 24 hrs by Western blotting analysis; type: cell-based
[18] = target: T1, JAK2-STAT3 (Homo sapiens); assay: Inhibition of JAK2/STAT3 signalling pathway in human A549 cells assessed as effect on JAK2 protein level at 5 to 20 uM incubated for 24 hrs by Western blotting analysis; type: cell-based; conditions: dose 5-20 µM
[19] = target: T1, JAK2-STAT3 (Homo sapiens); assay: Inhibition of JAK2/STAT3 signalling pathway in human A549 cells assessed as effect on STAT3 protein level at 5 to 20 uM incubated for 24 hrs by Western blotting analysis; type: cell-based; conditions: dose 5-20 µM
A549 [20] = assay: Induction of cell cycle arrest in human A549 cells assessed as accumulation of cells at G2/M phase at 5 nM incubated for 24 hrs by PI/RNase staining based flow cytometry analysis; type: functional
A549 [21] = assay: Induction of apoptosis in human A549 cells assessed as viable cells at 10 nM incubated for 24 hrs by Annexin V-FITC/PI staining based flow cytometry (reference value: 93 %); type: functional; conditions: read-out: Activity
A549 [22] = assay: Induction of apoptosis in human A549 cells assessed as late apoptotic cells at 10 nM incubated for 24 hrs by Annexin V-FITC/PI staining based flow cytometry (reference value: 1.72 %); type: functional
A549 [23] = assay: Induction of apoptosis in human A549 cells assessed as late apoptotic cells at 20 nM incubated for 24 hrs by Annexin V-FITC/PI staining based flow cytometry (reference value: 1.72 %); type: functional
A549 [24] = assay: Induction of apoptosis in human A549 cells assessed as necrotic cells at 10 nM incubated for 24 hrs by Annexin V-FITC/PI staining based flow cytometry (reference value: 0.67 %); type: functional
A549 [25] = assay: Induction of apoptosis in human A549 cells assessed as increase in intracellular ROS level at 5 to 20 nM incubated for 16 hrs by DCFH-DA staining based fluorescence microscopy; type: functional, cell-based; conditions: dose 5-20 nM
A549 [26] = assay: Induction of apoptosis in human A549 cells assessed as reduction of mitochondrial membrane potential at 5 to 20 nM incubated for 16 hrs by JC-1 staining based fluorescence microscopy; type: functional, cell-based; conditions: dose 5-20 nM
A549 [27] = assay: Induction of mitochondrial membrane potential loss in human A549 cells by measuring red fluorescence at 20 nM incubated for 16 hrs by JC-1 staining based flow cytometry analysis (reference value: 99.3 %); type: functional
A549 [28] = assay: Antitumor activity against human A549 cells xenografted in Balb/c mouse assessed as reduction in tumor weight at 50 mg/kg,ip administration measured after 31 days; type: functional; parameters: scale not given: the % may be the effect or the level left; conditions: time 31 day
[29] = Toxicity in Balb/c mouse xenografted with human A549 cells assessed as effect on spleen morphology at 50 mg/kg,ip administration measured after 31 days by Hematoxylin-eosin staining based microscopy; type: organism-based; conditions: in vivo, 744 h, time 31 day
[30] = Toxicity in Balb/c mouse xenografted with human A549 cells assessed as effect on kidney morphology at 50 mg/kg,ip administration measured after 31 days by Hematoxylin-eosin staining based microscopy; type: organism-based; conditions: in vivo, 744 h, time 31 day

Sequence of Tyrosine-protein kinase JAK3 (P52333 whole entry): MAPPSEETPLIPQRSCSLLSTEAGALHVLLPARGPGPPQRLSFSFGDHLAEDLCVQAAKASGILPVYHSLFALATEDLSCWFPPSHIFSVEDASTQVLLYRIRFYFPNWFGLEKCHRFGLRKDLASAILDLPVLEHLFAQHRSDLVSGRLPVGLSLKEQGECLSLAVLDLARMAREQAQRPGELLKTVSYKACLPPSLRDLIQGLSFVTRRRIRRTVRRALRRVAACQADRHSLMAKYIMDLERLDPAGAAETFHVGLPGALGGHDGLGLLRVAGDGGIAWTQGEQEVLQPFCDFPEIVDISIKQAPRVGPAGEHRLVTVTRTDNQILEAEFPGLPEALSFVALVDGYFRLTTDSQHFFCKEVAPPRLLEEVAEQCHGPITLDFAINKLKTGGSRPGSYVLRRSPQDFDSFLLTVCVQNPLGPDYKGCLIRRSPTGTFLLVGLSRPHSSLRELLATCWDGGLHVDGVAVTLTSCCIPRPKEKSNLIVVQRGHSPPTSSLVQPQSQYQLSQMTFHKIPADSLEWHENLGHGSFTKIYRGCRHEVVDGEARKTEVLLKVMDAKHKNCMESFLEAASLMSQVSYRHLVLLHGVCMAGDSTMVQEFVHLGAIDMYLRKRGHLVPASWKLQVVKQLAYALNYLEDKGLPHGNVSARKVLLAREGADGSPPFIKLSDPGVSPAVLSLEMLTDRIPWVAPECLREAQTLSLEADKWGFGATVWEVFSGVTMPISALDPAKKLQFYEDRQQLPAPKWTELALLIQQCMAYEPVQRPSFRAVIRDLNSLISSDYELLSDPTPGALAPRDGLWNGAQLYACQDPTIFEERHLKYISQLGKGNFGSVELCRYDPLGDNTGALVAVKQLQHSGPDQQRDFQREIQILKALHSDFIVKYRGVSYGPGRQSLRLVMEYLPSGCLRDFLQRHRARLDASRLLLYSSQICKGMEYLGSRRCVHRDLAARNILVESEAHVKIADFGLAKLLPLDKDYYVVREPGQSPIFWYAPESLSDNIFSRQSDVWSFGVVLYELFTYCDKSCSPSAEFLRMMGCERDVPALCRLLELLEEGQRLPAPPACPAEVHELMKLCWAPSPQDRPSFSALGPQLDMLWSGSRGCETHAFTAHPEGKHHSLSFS
Sequence of Tyrosine-protein kinase JAK2 (O60674 whole entry): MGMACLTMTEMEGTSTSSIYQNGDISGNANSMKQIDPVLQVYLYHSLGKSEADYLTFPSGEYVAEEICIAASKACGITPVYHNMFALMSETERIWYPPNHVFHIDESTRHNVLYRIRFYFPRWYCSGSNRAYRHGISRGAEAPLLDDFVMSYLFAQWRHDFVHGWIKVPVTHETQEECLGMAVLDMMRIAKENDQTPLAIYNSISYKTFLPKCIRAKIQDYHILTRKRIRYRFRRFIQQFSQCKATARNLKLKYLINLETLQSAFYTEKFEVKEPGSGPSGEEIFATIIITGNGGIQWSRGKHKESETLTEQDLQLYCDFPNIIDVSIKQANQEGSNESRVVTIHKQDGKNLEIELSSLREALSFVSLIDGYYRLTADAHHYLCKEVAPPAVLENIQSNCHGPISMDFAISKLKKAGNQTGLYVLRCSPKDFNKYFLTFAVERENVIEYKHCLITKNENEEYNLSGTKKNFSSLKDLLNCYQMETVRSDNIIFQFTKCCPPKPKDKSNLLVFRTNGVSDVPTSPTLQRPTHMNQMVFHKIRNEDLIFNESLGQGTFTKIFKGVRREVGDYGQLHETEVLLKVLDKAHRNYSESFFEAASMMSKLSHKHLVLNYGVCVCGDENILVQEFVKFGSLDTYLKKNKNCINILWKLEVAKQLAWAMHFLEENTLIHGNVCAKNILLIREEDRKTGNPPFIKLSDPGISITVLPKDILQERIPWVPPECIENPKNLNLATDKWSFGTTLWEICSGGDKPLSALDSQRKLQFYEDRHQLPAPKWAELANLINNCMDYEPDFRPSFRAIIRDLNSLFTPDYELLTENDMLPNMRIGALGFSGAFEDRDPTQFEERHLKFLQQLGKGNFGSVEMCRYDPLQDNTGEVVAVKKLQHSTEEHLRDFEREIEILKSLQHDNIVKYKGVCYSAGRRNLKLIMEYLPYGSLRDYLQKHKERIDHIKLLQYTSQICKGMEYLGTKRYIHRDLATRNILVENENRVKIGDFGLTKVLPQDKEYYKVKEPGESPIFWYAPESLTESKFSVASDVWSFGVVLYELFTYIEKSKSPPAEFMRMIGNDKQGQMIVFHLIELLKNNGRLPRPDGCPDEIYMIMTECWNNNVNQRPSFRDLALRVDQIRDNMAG

Q: With COc1cc(-c2nccc3nc(Nc4cccc5[nH]ccc45)nn23)cc(OC)c1OC as the molecule, how does the IC50 (HeLa) read?
A: Its IC50 is 15 nM.

Q: What about the IC50 (KP-4) of the same molecule?
A: The IC50 was 13 nM.

Q: And the IC50 (A549 [1])?
A: Its IC50 is 8 nM.

Q: What about the inhibition [2] of the same molecule?
A: Its inhibition is 97%.

Q: And the Activity (A549 [3])?
A: The Activity was 8.9%.

Q: What about the IC50 [4] of the same molecule?
A: Its IC50 is 12200 nM.

Q: And the IC50 at 48 h [5]?
A: The IC50 at 48 h was 450 nM.

Q: What about the IC50 [6] of the same molecule?
A: Its IC50 is 49 nM.

Q: What about the IC50 (PC-3) of the same molecule?
A: The IC50 was 224 nM.

Q: And the IC50 at 48 h [7]?
A: Its IC50 at 48 h is 24 nM.

Q: What about the MRT last at 24 h [8] of the same molecule?
A: The MRT last at 24 h was 5.2 h.

Q: What about the half-life [9] of the same molecule?
A: The half-life was 6 h.

Q: And the Tmax [10]?
A: Its Tmax is 6 min.

Q: And the MRT last at 24 h [11]?
A: The MRT last at 24 h was 4.6 h.

Q: And the bioavailability [12]?
A: Its bioavailability is 15.4%.

Q: And the AUC [13]?
A: The AUC was 2604.3 ng·h/mL.

Q: And the “MRT(t)” value [14]?
A: Its value is 3.5 h.

Q: What about the Cmax [15] of the same molecule?
A: The Cmax was 700.2 ng/mL.

Q: And the IC50 (Tubulin)?
A: The IC50 was 1300 nM.

Q: What about the Activity [16] of the same molecule?
A: Its Activity is “Active”.

Q: And the Activity (Tubulin (Homo sapiens))?
A: Its Activity is “Active”.

Q: And the inhibition [17]?
A: Its inhibition is “Dose-Dependent Effect”.

Q: What about the inhibition [18] of the same molecule?
A: The inhibition was “inactive”.

Q: And the inhibition [19]?
A: The inhibition was “inactive”.

Q: And the Activity (A549 [20])?
A: The Activity was 15.6%.

Q: What about the viability at 0.01 µM (A549 [21]) of the same molecule?
A: Its viability at 0.01 µM is 55.4%.

Q: What about the Activity (A549 [22]) of the same molecule?
A: The Activity was 14.7%.

Q: What about the Activity (A549 [23]) of the same molecule?
A: Its Activity is 50.8%.

Q: What about the Activity (A549 [24]) of the same molecule?
A: The Activity was 2.6%.

Q: And the Activity (A549 [25])?
A: Its Activity is “Active”.

Q: And the Activity (A549 [26])?
A: Its Activity is “Active”.

Q: And the Activity (A549 [27])?
A: The Activity was 55.9%.

Q: What about the Activity (A549 [28]) of the same molecule?
A: Its Activity is 70%.

Q: What about the Activity [29] of the same molecule?
A: Its Activity is “Non-Toxic”.

Q: What about the Activity [30] of the same molecule?
A: Its Activity is “Non-Toxic”.
